This note sets out measurements from patent US9857357B2, “Method of screening modulator of XKR8” (KYOTO UNIVERSITY, priority 2012, dated 2018).

What all share (format): cell-based, human
In one experiment the test system is PLB-985 cells. The experiment can be described thus: PtdSer exposure (Cy5-Annexin V staining) of DAC-treated PLB-985 cells after UV irradiation. Particulars: PLB-985 cells treated with DAC for five days, Cy5-Annexin V and PI. Here is the method:
Apoptosis was induced by treating cells with FasL or staurosporine, or exposing them to UV. In brief, 5×10^5 cells in 500 μl of culture medium were incubated at 37° C. with 10-400 units/ml hFasL for 1.2-2.0 h or with 10 μM staurosporine for 1.5-4.0 h. For UV exposure, 1×10^6 cells in 2 ml of PBS were exposed to 500-2000 J/m UV radiation (254 nm) in a StrataLinker UV oven (Stratagene), and incubated at 37° C. for 1.5-2.0 h in 4 ml of RPMI1640 containing 10% FCS. To monitor Ca^2÷-ionophore-induced PtdSer exposure, cells (5×10^5 cells) in 500 μl of Annexin V staining buffer (10 mM Hepes-NaOH buffer [pH7.4] containing 140 mM NaCl and 2.5 mM CaCl2) were incubated at 20° C. for 3 min, treated with 3.0-10 μM A23187, and analyzed with FACSAria at 20° C.
To detect PtdSer and PtdEtn exposed on the cell surface, cells were stained on ice for 15 min with 2500-5000-fold diluted Cy5-Annexin V (Biovision) or 800-fold diluted-biotin-Ro09-0198^66 followed by 1.0 μg/ml APC-streptavidin in Annexin V staining buffer in the presence of 5 μg/ml propidium iodide (PI), and analyzed by FACSAria or FACSCalibur (BD Biosciences). […] Aliquots (150 μl) were mixed with 150 μl HBSS containing 5 μg/ml fatty-acid free BSA (Sigma-Aldrich) and 500 nM Sytoxblue (Molecular Probes), and analyzed by FACSAria. […]

The subject of experiment [1] is Xkr8 mRNA in PLB-985 cells. As to the kind of experiment: Real-time RT-PCR of Xkr8 mRNA in DAC-treated PLB-985 cells. Here is the method:
To treat human PLB-985 cells with 5-aza-2′-deoxycytidine (DAC, Sigma-Aldrich), 1.0×10^6 cells in 10 ml of RPMI containing 10% FCS were incubated with 0.5 μM DAC for up to 7 days. Since DAC is an unstable compound, the medium containing DAC was changed every 24 hours. After DAC treatment, the cells were divided into three portions: one portion for FACS to analyze the PtdSer exposure, one for real-time RT-PCR for Xkr8 gene expression, and one for the methylation-specific PCR analysis^67. For the bisulfite genomic sequencing, the DNA was modified with bisulfite using a kit (MethyEasy Xceed, Human Genetic Signatures). In brief, 3 μg DNA was denatured by incubation at 37° C. for 15 min in 0.3 M NaOH, and treated with sodium bisulfite according to the protocol provided by the supplier except that the incubation time was changed to 90 min. The modified DNA was denatured at 95° C. for 20 min, and amplified by PCR using primers specific for the treated DNA ([…] (SEQ ID NO; 20) and […] (SEQ ID NO; 21)). PCR was carried out with EpiTaq HS polymerase (Takara Bio) for 7-40 cycles, and the product was cloned in a pGEM-Teasy vector for sequencing. […]
The specific mRNA was quantified at the point where the LightCycler System detected the upstroke of the exponential phase of PCR accumulation with the respective linearized plasmid DNA as reference.
(In qPCR the cycle at which signal appears reflects the starting amount.)

For experiment [2], the system named is CpG sites of the hXkr8 gene promoter in PLB-985 cells. As to the kind of experiment: Bisulfite genomic sequencing of CpG sites between -239 and +7 of the hXkr8 gene. The note with it: 0.5 μM DAC, day 7. The method, then:
To treat human PLB-985 cells with 5-aza-2′-deoxycytidine (DAC, Sigma-Aldrich), 1.0×10^6 cells in 10 ml of RPMI containing 10% FCS were incubated with 0.5 μM DAC for up to 7 days. Since DAC is an unstable compound, the medium containing DAC was changed every 24 hours. After DAC treatment, the cells were divided into three portions: one portion for FACS to analyze the PtdSer exposure, one for real-time RT-PCR for Xkr8 gene expression, and one for the methylation-specific PCR analysis^67. For the bisulfite genomic sequencing, the DNA was modified with bisulfite using a kit (MethyEasy Xceed, Human Genetic Signatures). In brief, 3 μg DNA was denatured by incubation at 37° C. for 15 min in 0.3 M NaOH, and treated with sodium bisulfite according to the protocol provided by the supplier except that the incubation time was changed to 90 min. The modified DNA was denatured at 95° C. for 20 min, and amplified by PCR using primers specific for the treated DNA ([…] (SEQ ID NO; 20) and […] (SEQ ID NO; 21)). PCR was carried out with EpiTaq HS polymerase (Takara Bio) for 7-40 cycles, and the product was cloned in a pGEM-Teasy vector for sequencing.

As for `Nc1ncn([C@H]2C[C@H](O)[C@@H](CO)O2)c(=O)n1` [DAC, 5-aza-2′-deoxycytidine], the “PtdSer exposure in response to UV irradiation” value with PLB-985 cells is listed as “gained the ability to expose PtdSer”. Further, the “Change of Xkr8 mRNA level” value in experiment [1] (0.5 μM DAC for up to 7 days) was “gradually increased”. The “Xkr8 mRNA level relative to that in Namalwa cells” value in experiment [1] (0.5 μM DAC, day 7) was “about 91%”. For the same compound, the “Methylation status of the 23 CpG sites between -239 and +7” value in experiment [2] is reported as “highly demethylated”.
